Measured values from PMC4256349, “A Conformational Sampling Model for Radical Catalysis in Pyridoxal Phosphate- and Cobalamin-dependent Enzymes” (The Journal of Biological Chemistry, 2014).

What was measured:
[1] = target: T1, ornithine 4,5-aminomutase (OAM) (Acetoanaerobium sticklandii, UniProt E3PY95); test: UV-visible spectra, external aldimine formation; type: binding; design: gene oraE; C-terminal His6 (pET-OAMH2), expressed in E. coli; purified apoenzyme reconstituted with PLP and AdoCbl; OAM dimer printed (alpha2beta2 known); settings: aerobic, pH 8.5, 25 °C, 5 mM; inhibitor, covalent (PLP external aldimine)
T1 sequence (E3PY95 1-740): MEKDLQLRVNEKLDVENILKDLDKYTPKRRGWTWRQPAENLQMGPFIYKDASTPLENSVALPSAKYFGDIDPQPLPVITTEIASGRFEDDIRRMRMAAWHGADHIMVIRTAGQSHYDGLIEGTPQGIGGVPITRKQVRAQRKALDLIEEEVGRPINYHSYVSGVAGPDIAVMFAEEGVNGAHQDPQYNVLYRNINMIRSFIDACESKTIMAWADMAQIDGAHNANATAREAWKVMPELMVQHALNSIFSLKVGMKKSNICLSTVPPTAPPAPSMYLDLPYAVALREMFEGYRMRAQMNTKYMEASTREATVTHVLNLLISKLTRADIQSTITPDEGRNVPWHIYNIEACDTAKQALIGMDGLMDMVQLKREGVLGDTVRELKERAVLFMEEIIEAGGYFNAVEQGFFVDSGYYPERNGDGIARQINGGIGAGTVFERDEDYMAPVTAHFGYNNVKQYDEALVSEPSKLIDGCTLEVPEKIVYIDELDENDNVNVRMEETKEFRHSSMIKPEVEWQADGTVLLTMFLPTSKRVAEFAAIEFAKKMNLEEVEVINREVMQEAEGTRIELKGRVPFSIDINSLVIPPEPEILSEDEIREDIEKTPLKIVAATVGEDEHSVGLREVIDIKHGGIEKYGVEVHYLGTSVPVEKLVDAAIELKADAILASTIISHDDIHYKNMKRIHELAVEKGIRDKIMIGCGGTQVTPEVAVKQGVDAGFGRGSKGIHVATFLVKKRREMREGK
T1 sequence (E3PY96 1-121 partner): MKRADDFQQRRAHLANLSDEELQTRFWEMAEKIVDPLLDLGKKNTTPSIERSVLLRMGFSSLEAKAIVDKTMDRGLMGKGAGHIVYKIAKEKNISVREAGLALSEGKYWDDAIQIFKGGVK

[2] = target: T1, ornithine 4,5-aminomutase (OAM); test: UV-visible, stopped flow and EPR; external aldimine and Co-C homolysis; type: binding; design: gene oraE; C-terminal His6 (pET-OAMH2), expressed in E. coli; purified apoenzyme reconstituted with PLP and AdoCbl; OAM dimer printed (alpha2beta2 known); settings: anaerobic, pH 8.5, 25 °C, 2.5 mM; inhibitor, covalent (PLP external aldimine)
[3] = target: T1, ornithine 4,5-aminomutase (OAM); design: gene oraE; settings: anaerobic, pH 8.5, 25 °C; equimolar with apoenzyme; covalent (Lys629)

NCC(N)C(=O)O (racemic) [DL-2,3-diaminopropanoic acid]
UV-visible spectra, external aldimine formation [1]: does not induce AdoCbl bond homolysis but does lead to external aldimine formation

NCCC(N)C(=O)O (racemic) [DL-2,4-diaminobutyric acid]
UV-visible, stopped flow and EPR; external aldimine and Co-C homolysis [2]: transimination induced by the DAB binding with PLP

Cc1ncc(COP(=O)(O)O)c(C=O)c1O [PLP]
UV-visible spectra, transimination at 416 nm [3]: transimination induced by the D-ornithine binding with PLP
